The AC50 is the concentration at which the activity in the assay is half-maximal. The low end stands for activity at low concentration, the high end for activity only at high concentration.

In ChEMBL document CHEMBL5291721, “A preclinical secondary pharmacology resource illuminates target-adverse drug reaction associations of marketed drugs” (Nat Commun, 2023) one finds AC50 data, which are given here for six molecules.

Test [1] deals with T1, Alpha-1A adrenergic receptor (Homo sapiens, UniProt P35348).
T1 sequence (P35348 whole entry): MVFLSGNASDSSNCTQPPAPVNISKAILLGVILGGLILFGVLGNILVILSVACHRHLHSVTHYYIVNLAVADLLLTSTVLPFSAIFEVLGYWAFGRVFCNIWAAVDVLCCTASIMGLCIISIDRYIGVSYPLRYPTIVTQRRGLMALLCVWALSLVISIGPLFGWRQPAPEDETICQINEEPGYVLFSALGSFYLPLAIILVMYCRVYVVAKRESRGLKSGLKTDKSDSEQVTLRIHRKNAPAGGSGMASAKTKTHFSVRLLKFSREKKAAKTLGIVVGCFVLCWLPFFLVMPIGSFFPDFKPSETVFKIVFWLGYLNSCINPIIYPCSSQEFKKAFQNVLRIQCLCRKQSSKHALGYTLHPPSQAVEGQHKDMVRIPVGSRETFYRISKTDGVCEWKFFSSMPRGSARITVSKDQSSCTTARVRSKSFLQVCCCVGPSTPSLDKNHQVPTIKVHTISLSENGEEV

In test [2] the target is T2, 5-hydroxytryptamine receptor 1A (Homo sapiens, UniProt P08908).
T2 sequence (P08908 whole entry): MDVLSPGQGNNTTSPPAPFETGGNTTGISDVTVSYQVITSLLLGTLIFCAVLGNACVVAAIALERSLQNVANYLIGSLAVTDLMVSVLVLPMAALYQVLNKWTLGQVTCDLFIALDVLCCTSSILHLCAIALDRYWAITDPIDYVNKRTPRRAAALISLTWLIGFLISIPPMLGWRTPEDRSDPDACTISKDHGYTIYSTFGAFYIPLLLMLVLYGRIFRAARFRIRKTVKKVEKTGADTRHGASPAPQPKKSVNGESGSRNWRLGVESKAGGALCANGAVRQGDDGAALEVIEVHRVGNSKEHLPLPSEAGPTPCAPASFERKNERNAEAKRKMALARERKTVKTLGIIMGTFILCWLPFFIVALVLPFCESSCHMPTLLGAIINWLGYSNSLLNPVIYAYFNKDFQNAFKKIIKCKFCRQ

The target in the next test is D(1A) dopamine receptor (Homo sapiens, UniProt P21728).
Chain of D(1A) dopamine receptor (P21728 whole entry): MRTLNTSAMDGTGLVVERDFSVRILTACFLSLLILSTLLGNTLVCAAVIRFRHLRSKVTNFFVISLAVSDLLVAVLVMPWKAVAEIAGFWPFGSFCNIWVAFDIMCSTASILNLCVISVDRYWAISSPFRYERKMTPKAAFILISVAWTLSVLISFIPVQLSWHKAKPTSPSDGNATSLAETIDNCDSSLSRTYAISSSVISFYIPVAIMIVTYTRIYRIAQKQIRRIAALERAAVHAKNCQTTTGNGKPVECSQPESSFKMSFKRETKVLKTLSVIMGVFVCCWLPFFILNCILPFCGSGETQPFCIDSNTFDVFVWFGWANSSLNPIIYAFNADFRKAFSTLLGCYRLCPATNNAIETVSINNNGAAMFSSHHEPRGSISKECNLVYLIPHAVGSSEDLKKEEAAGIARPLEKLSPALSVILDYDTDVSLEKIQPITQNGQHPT
Test [3] has as its target T3, Muscarinic acetylcholine receptor M2 (Homo sapiens, UniProt P08172).
T3 sequence (P08172 whole entry): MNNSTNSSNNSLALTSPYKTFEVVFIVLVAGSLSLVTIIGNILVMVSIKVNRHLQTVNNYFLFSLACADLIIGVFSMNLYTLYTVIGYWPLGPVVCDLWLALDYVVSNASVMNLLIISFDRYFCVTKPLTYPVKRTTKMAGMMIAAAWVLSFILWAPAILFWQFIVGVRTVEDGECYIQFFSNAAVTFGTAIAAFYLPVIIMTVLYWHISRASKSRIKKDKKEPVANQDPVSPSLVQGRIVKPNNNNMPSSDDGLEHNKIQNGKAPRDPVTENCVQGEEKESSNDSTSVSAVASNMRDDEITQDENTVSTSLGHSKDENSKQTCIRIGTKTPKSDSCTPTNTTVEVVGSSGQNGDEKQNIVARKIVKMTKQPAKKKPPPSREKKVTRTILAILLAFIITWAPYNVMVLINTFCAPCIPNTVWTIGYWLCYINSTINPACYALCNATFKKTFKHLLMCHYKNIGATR

Test [4] concerns the target T4, Oxysterols receptor LXR-alpha (Homo sapiens, UniProt Q13133).
T4 sequence (Q13133 whole entry): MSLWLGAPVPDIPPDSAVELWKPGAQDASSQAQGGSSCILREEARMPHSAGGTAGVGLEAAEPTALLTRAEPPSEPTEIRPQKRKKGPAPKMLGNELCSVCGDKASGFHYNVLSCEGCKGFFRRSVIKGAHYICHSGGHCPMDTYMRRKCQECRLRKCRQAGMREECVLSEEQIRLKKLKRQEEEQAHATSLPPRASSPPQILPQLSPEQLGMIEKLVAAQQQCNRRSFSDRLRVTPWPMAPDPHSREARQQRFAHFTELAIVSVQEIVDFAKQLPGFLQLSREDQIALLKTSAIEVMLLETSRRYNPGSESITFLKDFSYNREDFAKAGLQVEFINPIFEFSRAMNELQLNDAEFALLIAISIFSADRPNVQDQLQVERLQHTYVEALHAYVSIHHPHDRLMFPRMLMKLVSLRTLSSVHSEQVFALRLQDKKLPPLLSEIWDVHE
The class given is functional.

Test [5] concerns the target T5, Bile acid receptor (Homo sapiens, UniProt Q96RI1).
T5 sequence (Q96RI1 whole entry): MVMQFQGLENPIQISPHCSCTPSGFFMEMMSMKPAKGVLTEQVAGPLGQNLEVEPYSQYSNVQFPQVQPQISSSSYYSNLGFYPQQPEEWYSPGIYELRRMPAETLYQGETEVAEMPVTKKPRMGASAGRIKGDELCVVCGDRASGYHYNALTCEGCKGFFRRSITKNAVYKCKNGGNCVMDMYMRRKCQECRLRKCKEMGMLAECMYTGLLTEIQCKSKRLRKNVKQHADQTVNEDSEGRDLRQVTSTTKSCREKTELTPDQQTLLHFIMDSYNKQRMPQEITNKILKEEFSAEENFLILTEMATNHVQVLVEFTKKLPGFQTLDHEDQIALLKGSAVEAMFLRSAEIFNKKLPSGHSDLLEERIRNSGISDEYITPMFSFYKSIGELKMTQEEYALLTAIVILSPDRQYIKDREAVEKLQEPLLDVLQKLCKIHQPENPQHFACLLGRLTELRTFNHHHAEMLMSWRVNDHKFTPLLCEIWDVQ
The class given is functional.

For test [6], the target named is T4, Oxysterols receptor LXR-alpha. The class given is functional. This is another data set of the same source.
The target in test [7] is T5, Bile acid receptor. Type of test: functional. The source holds these as a separate data set.
For test [8], the target named is T6, Retinoic acid receptor gamma (Homo sapiens, UniProt P13631).
T6 sequence (P13631 whole entry): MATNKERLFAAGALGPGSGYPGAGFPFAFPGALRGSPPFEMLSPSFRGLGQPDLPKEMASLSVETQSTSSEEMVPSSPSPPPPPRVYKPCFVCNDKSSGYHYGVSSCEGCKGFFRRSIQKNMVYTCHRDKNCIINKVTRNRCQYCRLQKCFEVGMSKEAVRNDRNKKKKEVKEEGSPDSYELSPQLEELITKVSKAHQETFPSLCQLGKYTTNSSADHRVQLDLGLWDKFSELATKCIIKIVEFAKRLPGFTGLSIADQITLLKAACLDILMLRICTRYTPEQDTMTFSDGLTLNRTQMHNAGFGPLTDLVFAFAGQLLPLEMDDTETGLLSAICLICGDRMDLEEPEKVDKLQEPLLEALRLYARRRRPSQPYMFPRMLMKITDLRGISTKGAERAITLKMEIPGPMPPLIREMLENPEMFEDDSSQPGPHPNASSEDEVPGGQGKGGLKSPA
Type of test: functional, cell-based.
Further: assay procedure not described here.

Consider `CC[C@H]1OC(=O)[C@H](C)[C@@H](O[C@H]2C[C@@](C)(OC)[C@@H](O)[C@H](C)O2)[C@H](C)[C@@H](O[C@@H]2O[C@H](C)C[C@H](N(C)C)[C@H]2O)[C@](C)(O)C[C@@H](C)CN(C)[C@H](C)[C@@H](O)[C@]1(C)O` [AZITHROMYCIN], for which, in [1], the AC50 is over 30 µM.
The same measure, in the same setting: the value for `CCc1oc2ccccc2c1C(=O)c1cc(I)c(O)c(I)c1` [BENZIODARONE] was over 30 µM.
As to `O=C(OCC(O)CO)c1ccccc1Nc1ccnc2cc(Cl)ccc12` (stereo not drawn) [GLAFENINE], the AC50 (in [2]; on D(1A) dopamine receptor; in [3]) was over 30 µM in each case.
For the molecule `CN1C(C(=O)Nc2ccccn2)=C(O)c2sc(Cl)cc2S1(=O)=O` [LORNOXICAM], the AC50 (in test [4]; at Bile acid receptor [5]; in [6]; at Bile acid receptor [7]; in test [8]) was over 30 µM in each case.
As to `Cc1c(C(=O)NN2CCCCC2)nn(-c2ccc(Cl)cc2Cl)c1-c1ccc(Cl)cc1` [RIMONABANT], the AC50 was over 30 µM in test [4]; 14 µM at Bile acid receptor [5]; over 30 µM in [6]; over 30 µM on Bile acid receptor [7]; over 30 µM in [8].
With `Cc1cn([C@H]2C=C[C@@H](CO)O2)c(=O)[nH]c1=O` [STAVUDINE], the AC50 (in test [2]; at D(1A) dopamine receptor; in test [3]) was over 30 µM each time.
